Results published in US4086219A, “Nonapeptides and methods for their production” (Parke, Davis & Company, priority 1976, dated 1978).
Several values for one entry are separate records, joined by “and”; a condition that tells them apart may be missing. Equal values may be shown once. Square brackets hold non-standard residues; d marks the D form. Peptide text beside a SMILES is read from it. * marks the point of attachment. X1 = COc1ccc(COC(=O)*)cc1; Cbz = O=C(OCc1ccccc1)*; Boc = CC(C)(C)OC(=O)*; Bn = c1ccc(C*)cc1

Test system: LRF-induced luteinizing hormone (LH) release
Experiment: In vitro LRF antagonist test in rat anterior pituitary cell cultures
Type: cell-based
Procedure: Nonapeptides of this invention are screened for LRF antagonist activity in vitro using rat anterior pituitary cell cultures as described by Vale et al. [Endocrinology, 91, 562 (1972)]. The inhibition of LRF-induced luteinizing hormone (LH) release into the culture medium is the endpoint in this in vitro bioassay. Active peptides are then tested in vivo by the procedures of Humphrey et al. [Endocrinology, 92, 1515 (1972)]. Antagonist activity is asessed by the inhibition of LRF-induced LH release in the female rat and LRF-induced ovulation in the rabbit.

[1] = Molar Conc. 1.2 × 10^-8, LRF 3.5 × 10^-10
[2] = Molar Conc. 2 × 10^-8, LRF 3.5 × 10^-10
[3] = Molar Conc. 2 × 10^-9, LRF 3.5 × 10^-10
[4] = Molar Conc. 4 × 10^-8, LRF 3.5 × 10^-10
[5] = Molar Conc. 4 × 10^-9, LRF 3.5 × 10^-10
[6] = Molar Conc. 7 × 10^-8, LRF 3.5 × 10^-10
[7] = Molar Conc. 7 × 10^-9, LRF 3.5 × 10^-10
[8] = Molar Conc. 1 × 10^-5, LRF 5 × 10^-10, first series (LRF Control 71.56)
[9] = Molar Conc. 1 × 10^-6, LRF 5 × 10^-10, first series (LRF Control 71.56)
[10] = Molar Conc. 1 × 10^-7, LRF 5 × 10^-10, first series (LRF Control 71.56)
[11] = Molar Conc. 1 × 10^-8, LRF 5 × 10^-10, first series (LRF Control 71.56)
[12] = Molar Conc. 1 × 10^-8, LRF 5 × 10^-10, second series of the compound
[13] = Molar Conc. 1 × 10^-9, LRF 5 × 10^-10, second series of the compound
[14] = Molar Conc. 2.5 × 10^-9, LRF 5 × 10^-10, second series of the compound
[15] = Molar Conc. 5 × 10^-9, LRF 5 × 10^-10, second series of the compound
[16] = Molar Conc. 1 × 10^-9, LRF 3.5 × 10^-10
[17] = Molar Conc. 1 × 10^-10, LRF 3.5 × 10^-10
[18] = Molar Conc. 2 × 10^-10, LRF 3.5 × 10^-10
[19] = Molar Conc. 3.5 × 10^-9, LRF 3.5 × 10^-10
[20] = Molar Conc. 3.5 × 10^-10, LRF 3.5 × 10^-10
[21] = Molar Conc. 6 × 10^-9, LRF 3.5 × 10^-10
[22] = Molar Conc. 6 × 10^-10, LRF 3.5 × 10^-10
[23] = Molar Conc. 2.5 × 10^-10, LRF 5 × 10^-10, second series of the compound
[24] = Molar Conc. 5 × 10^-10, LRF 5 × 10^-10, second series of the compound
[25] = Molar Conc. 1 × 10^-8, LRF 3.5 × 10^-10
[26] = Molar Conc. 2.5 × 10^-8, LRF 3.5 × 10^-10
[27] = Molar Conc. 2.5 × 10^-9, LRF 3.5 × 10^-10
[28] = Molar Conc. 2.5 × 10^-10, LRF 3.5 × 10^-10
[29] = Molar Conc. 6 × 10^-8, LRF 3.5 × 10^-10

Compound: CC(C)C[C@H](NC(=O)[C@@H](Cc1ccccc1)NC(=O)[C@H](Cc1ccc(O)cc1)NC(=O)[C@H](CO)NC(=O)[C@H](Cc1c[nH]c2ccccc12)NC(=O)[C@H](CCC(N)=O)NC(=O)OCc1ccccc1)C(=O)N[C@@H](CCCNC(=N)N)C(=O)N1CCC[C@H]1C(=O)NCC(N)=O [N^α -Benzyloxycarbonyl-L-glutaminyl-L-tryptophyl-L-seryl-L-tyrosyl-D-phenylalanyl-L-leucyl-L-arginyl-L-prolyl-glycinamide] (Cbz-QWSY[dF]LRPG-NH2)
- % LH Release Inhibition [1]: 71%
- LH Value [1]: 13.47 ng/mL
- % LH Release Inhibition [2]: 90%
- LH Value [2]: 10.07 ng/mL
- % LH Release Inhibition [3]: 21%
- LH Value [3]: 22.43 ng/mL
- % LH Release Inhibition [4]: 91%
- LH Value [4]: 9.79 ng/mL
- % LH Release Inhibition [5]: 30%
- LH Value [5]: 20.76 ng/mL
- % LH Release Inhibition [6]: 93%
- LH Value [6]: 9.49 ng/mL
- % LH Release Inhibition [7]: 42%
- LH Value [7]: 18.60 ng/mL

Compound: CC[C@H](C)[C@H](NC(=O)OCc1ccccc1)C(=O)N[C@@H](Cc1c[nH]c2ccccc12)C(=O)N[C@@H](CO)C(=O)N[C@@H](Cc1ccc(O)cc1)C(=O)N[C@H](Cc1c[nH]c2ccccc12)C(=O)N[C@@H](CC(C)C)C(=O)N[C@@H](CCCNC(=N)N)C(=O)N1CCC[C@H]1C(=O)NCC(N)=O [N^α -Benzyloxycarbonyl-L-isoleucyl-L-tryptophyl-L-seryl-L-tyrosyl-D-tryptophyl-L-leucyl-L-arginyl-L-prolyl-glycinamide] (Cbz-IWSY[dW]LRPG-NH2)
- % LH Release Inhibition [8]: 96%
- LH Value [8]: 20.69 ng/mL
- % LH Release Inhibition [9]: 96%
- LH Value [9]: 20.24 ng/mL
- % LH Release Inhibition [10]: 96%
- LH Value [10]: 20.50 ng/mL
- % LH Release Inhibition [11]: 95%
- LH Value [11]: 21.04 ng/mL
- % LH Release Inhibition [12]: 98%
- LH Value [12]: 14.00 ng/mL
- % LH Release Inhibition [13]: 41%
- LH Value [13]: 36.46 ng/mL
- % LH Release Inhibition [14]: 70%
- LH Value [14]: 24.96 ng/mL
- % LH Release Inhibition [15]: 87%
- LH Value [15]: 18.49 ng/mL

Compound: CC(C)C[C@H](NC(=O)[C@@H](Cc1ccccc1)NC(=O)[C@H](Cc1ccc(O)cc1)NC(=O)[C@H](CO)NC(=O)[C@H](Cc1c[nH]c2ccccc12)NC(=O)[C@H](COCc1ccccc1)NC(=O)OCc1ccccc1)C(=O)N[C@@H](CCCNC(=N)N)C(=O)N1CCC[C@H]1C(=O)NCC(N)=O.Cl [N^α -Benzyloxycarbonyl-O-benzyl-L-seryl-L-tryptophyl-L-seryl-L-tyrosyl-D-phenylalanyl-L-leucyl-L-arginyl-L-prolyl-glycinamide hydrochloride] (Cbz-S(Bn)WSY[dF]LRPG-NH2)
- % LH Release Inhibition [16]: 56%
- LH Value [16]: 17.85 ng/mL
- % LH Release Inhibition [17]: 0%
- LH Value [17]: 34.50 ng/mL
- % LH Release Inhibition [3]: 88%
- LH Value [3]: 9.84 ng/mL
- % LH Release Inhibition [18]: 14%
- LH Value [18]: 28.47 ng/mL
- % LH Release Inhibition [19]: 99%
- LH Value [19]: 6.96 ng/mL
- % LH Release Inhibition [20]: 36%
- LH Value [20]: 23.09 ng/mL
- % LH Release Inhibition [21]: 109%
- LH Value [21]: 4.59 ng/mL
- % LH Release Inhibition [22]: 52%
- LH Value [22]: 18.89 ng/mL

Compound: COc1ccc(COC(=O)N[C@@H](COCc2ccccc2)C(=O)N[C@@H](Cc2c[nH]c3ccccc23)C(=O)N[C@@H](CO)C(=O)N[C@@H](Cc2ccc(O)cc2)C(=O)N[C@H](Cc2ccccc2)C(=O)N[C@@H](CC(C)C)C(=O)N[C@@H](CCCNC(=N)N)C(=O)N2CCC[C@H]2C(=O)NCC(N)=O)cc1.Cl [N^α -p-Methoxybenzyloxycarbonyl-O-benzyl-L-seryl-L-tryptophyl-L-seryl-L-tyrosyl-D-phenylalanyl-L-leucyl-L-arginyl-L-prolyl-glycinamide hydrochloride] (X1-S(Bn)WSY[dF]LRPG-NH2)
- % LH Release Inhibition [10]: 99%
- LH Value [10]: 18.59 ng/mL
- % LH Release Inhibition [11]: 105%
- LH Value [11]: 15.95 ng/mL
- % LH Release Inhibition [12]: 88%
- LH Value [12]: 16.01 ng/mL
- % LH Release Inhibition [13]: 41%
- LH Value [13]: 32.94 ng/mL
- % LH Release Inhibition [23]: 35%
- LH Value [23]: 34.87 ng/mL
- % LH Release Inhibition [24]: 52%
- LH Value [24]: 28.95 ng/mL

Compound: CC(C)C[C@H](NC(=O)[C@@H](Cc1c[nH]c2ccccc12)NC(=O)[C@H](Cc1ccc(O)cc1)NC(=O)[C@H](CO)NC(=O)[C@H](Cc1c[nH]c2ccccc12)NC(=O)[C@H](COCc1ccccc1)NC(=O)OC(C)(C)C)C(=O)N[C@@H](CCCNC(=N)N)C(=O)N1CCC[C@H]1C(=O)NCC(N)=O [N^α -t-Butoxycarbonyl-O-benzyl-L-seryl-L-tryptophyl-L-seryl-L-tyrosyl-D-tryptophyl-L-leucyl-L-arginyl-L-prolyl-glycinamide] (Boc-S(Bn)WSY[dW]LRPG-NH2)
- % LH Release Inhibition [25]: 104%
- LH Value [25]: 8.96 ng/mL
- % LH Release Inhibition [16]: 64%
- LH Value [16]: 21.44 ng/mL
- % LH Release Inhibition [26]: 104%
- LH Value [26]: 8.95 ng/mL
- % LH Release Inhibition [27]: 72%
- LH Value [27]: 18.85 ng/mL
- % LH Release Inhibition [28]: 39%
- LH Value [28]: 29.05 ng/mL
- % LH Release Inhibition [29]: 108%
- LH Value [29]: 7.80 ng/mL
- % LH Release Inhibition [21]: 99%
- LH Value [21]: 10.64 ng/mL
- % LH Release Inhibition [22]: 50%
- LH Value [22]: 25.53 ng/mL

Compound: LRF: luteinizing hormone releasing factor, also called luteinizing hormone releasing hormone (LH-RH); stimulates secretion of luteinizing hormone from the anterior pituitary (QHWSYGLRPG; Gonadoliberin-1; UniProt P01148 24-33, looked up) [reference compound]
- LH Value (LRF alone, Molar Conc. 3.5 × 10^-10 (control of each series)): 26.23 ng/mL and 40.92 ng/mL and 32.11 ng/mL
- LH Value (LRF alone, Molar Conc. 5 × 10^-10 (control of each series)): 71.56 ng/mL and 47.31 ng/mL and 52.80 ng/mL
